# Tests used:
# giant foxtail = assay: Test A preemergence; format: in vivo, Setaria faberii
# Method in brief: (§1)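 Visual 0–100 rating (100 = complete control) taken about 10 d post-treatment relative to untreated checks. Preemergence: directed soil spray on sown loam/sand pots. Postemergence: seedlings 2–10 cm, 1–2 leaf. Non-phytotoxic solvent formulation with surfactant.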
# corn = assay: Test A postemergence; format: in vivo, Zea mays; conditions: Zea mays, post-emergence, 240 h, 0 to 100 scale, 0 no effect, 100 complete control
# Method in brief: as §1
# blackgrass = assay: Test C postemergence; format: in vivo, Alopecurus myosuroides; conditions: Alopecurus myosuroides, post-emergence
# Method in brief: (§2)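 Plants were kept under greenhouse conditions for 13–15 days following spray. Pre-emergent application went to soil (loam–sand), post-emergent to foliage at 1–4 leaves. Evaluation: visual, percent control against untreated checks.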
# wheat, winter = assay: Test C postemergence; format: in vivo, Triticum aestivum
# Method in brief: as §2
# galium = assay: Test C postemergence; format: in vivo, Galium aparine; conditions: Galium, post-emergence
# Method in brief: as §2
# johnsongrass = assay: Test C postemergence; format: in vivo, Sorghum halepense
# Method in brief: as §2
# pigweed = assay: Test C postemergence; format: in vivo, Amaranthus retroflexus
# Method in brief: as §2
# ragweed = assay: Test C postemergence; format: in vivo, Ambrosia elatior
# Method in brief: as §2
# soybean = assay: Test C postemergence; format: in vivo, Glycine max
# Method in brief: as §2
# oilseed rape = assay: Test C postemergence; format: in vivo, Brassica napus
# Method in brief: as §2
# waterhemp = assay: Test C postemergence; format: in vivo, Amaranthus rudis
# Method in brief: as §2
# kochia = assay: Test C postemergence; format: in vivo, Kochia scoparia; conditions: Bassia scoparia, post-emergence
# Method in brief: as §2
# velvetleaf = assay: Test C postemergence; format: in vivo, Abutilon theophrasti
# Method in brief: as §2
# [1] = 31 g ai/ha, postemergence, visual rating, scale 0 to 100 (0 no effect, 100 complete control), 13 to 15 days
structure (smiles),measurement,setting,value
"N#Cc1cccc(Oc2ncc(Cl)cn2)c1-n1cc(C(F)F)cn1 [Compound 253, 3-(5-chloropyrimidin-2-yl)oxy-2-[4-(difluoromethyl)-1H-pyrazol-1-yl]benzonitrile]","Foxtail, Giant plant response rating (0 to 100 scale)",giant foxtail; 125 g ai/ha,100
same,pest or weed control at 31 g/ha,"giant foxtail; Setaria faberi, pre-emergence, 240 h, 31 g ai/ha, 0 to 100 scale where 0 is no effect and 100 is complete control, visual, approximately 10 days, read-out: Plant response rating, Foxtail, Giant",70%
same,"Corn plant response rating (crop injury, 0 = no effect, 100 = complete kill) at 31 g/ha",corn; 31 g ai/ha,20%
same,"Corn plant response rating (crop injury, 0 = no effect, 100 = complete kill) at 125 g/ha",corn; 125 g ai/ha,60%
same,pest or weed control at 16 g/ha,"blackgrass; 16 g ai/ha, postemergence, 0 is no effect, 100 is complete control, read-out: Plant response rating (0 to 100), Blackgrass",0%
same,pest or weed control at 31 g/ha,"blackgrass; 31 g ai/ha, postemergence, visual rating, scale 0 to 100 (0 no effect, 100 complete control), 13 to 15 days, read-out: Blackgrass plant response rating",0%
same,pest or weed control at 125 g/ha,"blackgrass; 125 g ai/ha, postemergence, visual rating, scale 0 to 100 (0 no effect, 100 complete control), read-out: Plant response rating, Blackgrass",10%
same,pest or weed control at 62 g/ha,"blackgrass; Postemergence, 62 g ai/ha, scale 0 to 100 (0 no effect, 100 complete control), 13 to 15 days, read-out: Plant response rating, Blackgrass",0%
same,Wheat plant response rating,"wheat, winter; [1]",0
same,plant injury at 16 g/ha,"wheat, winter; Triticum aestivum, post-emergence, 16 g ai/ha, postemergence, 0 is no effect, 100 is complete control, read-out: Plant response rating (0 to 100), Wheat",0%
same,plant injury at 125 g/ha,"wheat, winter; Triticum aestivum, post-emergence, 125 g ai/ha, postemergence, visual rating, scale 0 to 100 (0 no effect, 100 complete control), read-out: Plant response rating, Wheat",0%
same,plant injury at 62 g/ha,"wheat, winter; Triticum aestivum, post-emergence, Postemergence, 62 g ai/ha, scale 0 to 100 (0 no effect, 100 complete control), 13 to 15 days, read-out: Plant response rating, Wheat",0%
same,pest or weed control at 16 g/ha,"galium; 16 g ai/ha, postemergence, 0 is no effect, 100 is complete control, read-out: Plant response rating (0 to 100), Galium",45%
same,pest or weed control at 31 g/ha,"galium; 31 g ai/ha, postemergence, visual rating, scale 0 to 100 (0 no effect, 100 complete control), 13 to 15 days, read-out: Galium plant response rating",80%
same,pest or weed control at 125 g/ha,"galium; 125 g ai/ha, postemergence, visual rating, scale 0 to 100 (0 no effect, 100 complete control), read-out: Plant response rating, Galium",100%
same,pest or weed control at 62 g/ha,"galium; Postemergence, 62 g ai/ha, scale 0 to 100 (0 no effect, 100 complete control), 13 to 15 days, read-out: Plant response rating, Galium",80%
same,Johnsongrass plant response rating,johnsongrass; [1],5
same,pest or weed control at 16 g/ha,"johnsongrass; Sorghum halepense, post-emergence, 16 g ai/ha, postemergence, 0 is no effect, 100 is complete control, read-out: Plant response rating (0 to 100), Johnsongrass",0%
same,pest or weed control at 125 g/ha,"johnsongrass; Sorghum halepense, post-emergence, 125 g ai/ha, postemergence, visual rating, scale 0 to 100 (0 no effect, 100 complete control), read-out: Plant response rating, Johnsongrass",10%
same,pest or weed control at 62 g/ha,"johnsongrass; Sorghum halepense, post-emergence, Postemergence, 62 g ai/ha, scale 0 to 100 (0 no effect, 100 complete control), 13 to 15 days, read-out: Plant response rating, Johnsongrass",5%
same,Pigweed plant response rating,pigweed; [1],85
same,pest or weed control at 16 g/ha,"pigweed; Amaranthus retroflexus, post-emergence, 16 g ai/ha, postemergence, 0 is no effect, 100 is complete control, read-out: Plant response rating (0 to 100), Pigweed",85%
same,pest or weed control at 125 g/ha,"pigweed; Amaranthus retroflexus, post-emergence, 125 g ai/ha, postemergence, visual rating, scale 0 to 100 (0 no effect, 100 complete control), read-out: Plant response rating, Pigweed",95%
same,pest or weed control at 62 g/ha,"pigweed; Amaranthus retroflexus, post-emergence, Postemergence, 62 g ai/ha, scale 0 to 100 (0 no effect, 100 complete control), 13 to 15 days, read-out: Plant response rating, Pigweed",98%
same,Ragweed plant response rating,ragweed; [1],45
same,pest or weed control at 16 g/ha,"ragweed; Ambrosia artemisiifolia, post-emergence, 16 g ai/ha, postemergence, 0 is no effect, 100 is complete control, read-out: Plant response rating (0 to 100), Ragweed",20%
same,pest or weed control at 125 g/ha,"ragweed; Ambrosia artemisiifolia, post-emergence, 125 g ai/ha, postemergence, visual rating, scale 0 to 100 (0 no effect, 100 complete control), read-out: Plant response rating, Ragweed",80%
same,pest or weed control at 62 g/ha,"ragweed; Ambrosia artemisiifolia, post-emergence, Postemergence, 62 g ai/ha, scale 0 to 100 (0 no effect, 100 complete control), 13 to 15 days, read-out: Plant response rating, Ragweed",55%
same,Soybean plant response rating,soybean; [1],60
same,"Soybean plant response rating (crop injury, 0-100 scale) at 16 g/ha","soybean; Glycine max, post-emergence, 16 g ai/ha, postemergence, 0 is no effect, 100 is complete control",40%
same,"Soybean plant response rating (crop injury, 0-100 scale) at 125 g/ha","soybean; Glycine max, post-emergence, 125 g ai/ha, postemergence, visual rating, scale 0 to 100 (0 no effect, 100 complete control), read-out: Plant response rating, Soybean",90%
same,"Soybean plant response rating (crop injury, 0-100 scale) at 62 g/ha","soybean; Glycine max, post-emergence, Postemergence, 62 g ai/ha, scale 0 to 100 (0 no effect, 100 complete control), 13 to 15 days",40%
same,Oilseed Rape plant response rating,oilseed rape; [1],60
same,plant injury at 16 g/ha,"oilseed rape; Brassica napus, post-emergence, 16 g ai/ha, postemergence, 0 is no effect, 100 is complete control, read-out: Plant response rating (0 to 100), Oilseed Rape",5%
same,plant injury at 125 g/ha,"oilseed rape; Brassica napus, post-emergence, 125 g ai/ha, postemergence, visual rating, scale 0 to 100 (0 no effect, 100 complete control), read-out: Plant response rating, Oilseed Rape",80%
same,plant injury at 62 g/ha,"oilseed rape; Brassica napus, post-emergence, Postemergence, 62 g ai/ha, scale 0 to 100 (0 no effect, 100 complete control), 13 to 15 days, read-out: Plant response rating, Oilseed Rape",10%
same,Waterhemp plant response rating,waterhemp; [1],75
same,pest or weed control at 16 g/ha,"waterhemp; Amaranthus tuberculatus, post-emergence, 16 g ai/ha, postemergence, 0 is no effect, 100 is complete control, read-out: Plant response rating (0 to 100), Waterhemp",75%
same,pest or weed control at 125 g/ha,"waterhemp; Amaranthus tuberculatus, post-emergence, 125 g ai/ha, postemergence, visual rating, scale 0 to 100 (0 no effect, 100 complete control), read-out: Plant response rating, Waterhemp",85%
same,pest or weed control at 62 g/ha,"waterhemp; Amaranthus tuberculatus, post-emergence, Postemergence, 62 g ai/ha, scale 0 to 100 (0 no effect, 100 complete control), 13 to 15 days, read-out: Plant response rating, Waterhemp",80%
same,pest or weed control at 16 g/ha,"kochia; 16 g ai/ha, postemergence, 0 is no effect, 100 is complete control, read-out: Plant response rating (0 to 100), Kochia",80%
same,pest or weed control at 31 g/ha,"kochia; 31 g ai/ha, postemergence, visual rating, scale 0 to 100 (0 no effect, 100 complete control), 13 to 15 days, read-out: Kochia plant response rating",98%
same,pest or weed control at 125 g/ha,"kochia; 125 g ai/ha, postemergence, visual rating, scale 0 to 100 (0 no effect, 100 complete control), read-out: Plant response rating, Kochia",100%
same,pest or weed control at 62 g/ha,"kochia; Postemergence, 62 g ai/ha, scale 0 to 100 (0 no effect, 100 complete control), 13 to 15 days, read-out: Plant response rating, Kochia",100%
same,Velvetleaf plant response rating,velvetleaf; [1],70
same,pest or weed control at 16 g/ha,"velvetleaf; Abutilon theophrasti, post-emergence, 16 g ai/ha, postemergence, 0 is no effect, 100 is complete control, read-out: Plant response rating (0 to 100), Velvetleaf",30%
same,pest or weed control at 125 g/ha,"velvetleaf; Abutilon theophrasti, post-emergence, 125 g ai/ha, postemergence, visual rating, scale 0 to 100 (0 no effect, 100 complete control), read-out: Plant response rating, Velvetleaf",85%
same,pest or weed control at 62 g/ha,"velvetleaf; Abutilon theophrasti, post-emergence, Postemergence, 62 g ai/ha, scale 0 to 100 (0 no effect, 100 complete control), 13 to 15 days, read-out: Plant response rating, Velvetleaf",70%
